Patent publication US10000501B2, “Inhibitors of HIF prolyl hydroxylase” (MERCK SHARP & DOHME CORP., priority 2014, dated 2018)

Target: T1, human HIF-PHD2 (Homo sapiens, UniProt Q9GZT9)
T1 construct: FLAG-tagged full length PHD2 expressed in and purified from baculovirus-infected Sf9 cells; FLAG; made in house; host or cells: baculovirus-infected Sf9 cells
Experiment: HIF-PHD2 inhibition assay (hydroxylation of HIF-1α peptide, time resolved fluorescence)
Format: biochemical
Settings: FLAG-tagged full length PHD2; 0.2 μM 2-oxoglutarate, 0.5 μM HIF-1α peptide
Protocol: To each well of a 384-well plate, 1 μL of test compounds in DMSO (final concentration ranging from 0.3 nM to 10 uM) were added into 20 μl of assay buffer (50 mM Tris pH 7.4/0.01% Tween-20/0.1 mg/ml bovine serum albumin/10 μM ferrous sulfate/1 mM sodium ascorbate/20 μg/ml catalase) containing 0.15 μg/ml FLAG-tagged full length PHD2 expressed in and purified from baculovirus-infected Sf9 cells. […] Purif.

T1 sequence (Q9GZT9 whole entry): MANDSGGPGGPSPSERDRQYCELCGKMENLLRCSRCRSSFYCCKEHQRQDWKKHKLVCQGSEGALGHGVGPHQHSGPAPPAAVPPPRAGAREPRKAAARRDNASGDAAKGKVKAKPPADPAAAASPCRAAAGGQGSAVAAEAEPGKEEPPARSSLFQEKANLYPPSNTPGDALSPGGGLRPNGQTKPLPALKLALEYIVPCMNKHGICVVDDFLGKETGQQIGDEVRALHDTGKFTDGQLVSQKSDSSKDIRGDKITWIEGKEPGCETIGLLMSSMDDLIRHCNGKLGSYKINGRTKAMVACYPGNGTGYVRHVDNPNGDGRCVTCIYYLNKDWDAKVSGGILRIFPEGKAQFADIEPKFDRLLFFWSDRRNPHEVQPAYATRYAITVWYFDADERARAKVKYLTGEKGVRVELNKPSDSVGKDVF

Compound | IC50
CC(C)c1ccc(Cn2c3c(c(O)c(C(=O)NCC(=O)O)c2=O)CCOC3)cc1 [Example 39, 2-(4-hydroxy-1-(4-isopropylbenzyl)-2-oxo-2,5,6,8-tetrahydro-1H-pyrano[3,4-b]pyridine-3-carboxamido)acetic acid] | 42.2 nM
N#Cc1ccc(Cn2c3c(c(O)c(C(=O)NCC(=O)O)c2=O)CCOC3)cc1 [Example 40, 2-(1-(4-cyanobenzyl)-4-hydroxy-2-oxo-2,5,6,8-tetrahydro-1H-pyrano[3,4-b]pyridine-3-carboxamido)acetic acid] | 21.8 nM
CS(=O)(=O)c1ccc(Cn2c3c(c(O)c(C(=O)NCC(=O)O)c2=O)CCOC3)cc1 [Example 41, 2-(4-hydroxy-1-(4-(methylsulfonyl)benzyl)-2-oxo-2,5,6,8-tetrahydro-1H-pyrano[3,4-b]pyridine-3-carboxamido)acetic acid] | 28.7 nM
O=C(O)CNC(=O)c1c(O)c2c(n(Cc3ccc(C(F)(F)F)nc3)c1=O)COCC2 [Example 42, 2-(4-hydroxy-2-oxo-1-((6-(trifluoromethyl)pyridin-3-yl)methyl)-2,5,6,8-tetrahydro-1H-pyrano[3,4-b]pyridine-3-carboxamido)acetic acid] | 19.9 nM
O=C(O)CNC(=O)c1c(O)c2c(n(Cc3cc(F)c(F)cc3F)c1=O)COCC2 [Example 43, 2-(4-hydroxy-2-oxo-1-(2,4,5-trifluorobenzyl)-2,5,6,8-tetrahydro-1H-pyrano[3,4-b]pyridine-3-carboxamido)acetic acid] | 26.5 nM
N#Cc1ccc(Cn2c3c(c(O)c(C(=O)NCC(=O)O)c2=O)CCOC3)c(F)c1 [Example 44, 2-(1-(4-cyano-2-fluorobenzyl)-4-hydroxy-2-oxo-2,5,6,8-tetrahydro-1H-pyrano[3,4-b]pyridine-3-carboxamido)acetic acid] | 14.4 nM
Cc1cc(Cn2c3c(c(O)c(C(=O)NCC(=O)O)c2=O)CCOC3)ccc1C#N [Example 45, 2-(1-(4-cyano-3-methylbenzyl)-4-hydroxy-2-oxo-2,5,6,8-tetrahydro-1H-pyrano[3,4-b]pyridine-3-carboxamido)acetic acid] | 90.1 nM
O=C(O)CNC(=O)c1c(O)c2c(n(Cc3ncc(C(F)(F)F)cn3)c1=O)COCC2 [Example 46, 2-(4-hydroxy-2-oxo-1-((5-(trifluoromethyl)pyrimidin-2-yl)methyl)-2,5,6,8-tetrahydro-1H-pyrano[3,4-b]pyridine-3-carboxamido)acetic acid] | 90.1 nM
O=C(O)CNC(=O)c1c(O)c2c(n(Cc3ccc(Cl)cc3F)c1=O)COCC2 [Example 47, 2-(1-(4-chloro-2-fluorobenzyl)-4-hydroxy-2-oxo-2,5,6,8-tetrahydro-1H-pyrano[3,4-b]pyridine-3-carboxamido)acetic acid] | 19.3 nM
O=C(O)CNC(=O)c1c(O)c2c(n(Cc3nc4ccccc4s3)c1=O)COCC2 [Example 48, 2-(1-(benzo[d]thiazol-2-ylmethyl)-4-hydroxy-2-oxo-2,5,6,8-tetrahydro-1H-pyrano[3,4-b]pyridine-3-carboxamido)acetic acid] | 8.9 nM
O=C(O)CNC(=O)c1c(O)c2c(n(Cc3ccc(OC(F)F)cc3)c1=O)COCC2 [Example 49, 2-(1-(4-(difluoromethoxy)benzyl)-4-hydroxy-2-oxo-2,5,6,8-tetrahydro-1H-pyrano[3,4-b]pyridine-3-carboxamido)acetic acid] | 28.6 nM
Cn1ccc(Cn2c3c(c(O)c(C(=O)NCC(=O)O)c2=O)CCOC3)n1 [Example 50, 2-(4-hydroxy-1-((1-methyl-1H-pyrazol-3-yl)methyl)-2-oxo-2,5,6,8-tetrahydro-1H-pyrano[3,4-b]pyridine-3-carboxamido)acetic acid] | 55.1 nM
COc1ccc(Cn2c3c(c(O)c(C(=O)NCC(=O)O)c2=O)CCOC3)cc1 [Example 51, 2-(4-hydroxy-1-(4-methoxybenzyl)-2-oxo-2,5,6,8-tetrahydro-1H-pyrano[3,4-b]pyridine-3-carboxamido)acetic acid] | 30.2 nM
O=C(O)CNC(=O)c1c(O)c2c(n(Cc3ccc(OC(F)(F)F)cc3)c1=O)COCC2 [Example 52, 2-(4-hydroxy-2-oxo-1-(4-(trifluoromethoxy)benzyl)-2,5,6,8-tetrahydro-1H-pyrano[3,4-b]pyridine-3-carboxamido)acetic acid] | 24.1 nM
O=C(O)CNC(=O)c1c(O)c2c(n(Cc3ccc(F)cc3)c1=O)COCC2 [Example 53, 2-(1-(4-fluorobenzyl)-4-hydroxy-2-oxo-2,5,6,8-tetrahydro-1H-pyrano[3,4-b]pyridine-3-carboxamido)acetic acid] | 29.3 nM
O=C(O)CNC(=O)c1c(O)c2c(n(Cc3ccc(F)c(F)c3)c1=O)COCC2 [Example 54, 2-(1-(3,4-difluorobenzyl)-4-hydroxy-2-oxo-2,5,6,8-tetrahydro-1H-pyrano[3,4-b]pyridine-3-carboxamido)acetic acid] | 30.8 nM

Compound | IC50
CNC(=O)c1ccc(Cn2c3c(c(O)c(C(=O)NCC(=O)O)c2=O)CCOC3)cc1 [Example 55, 2-(4-hydroxy-1-(4-(methylcarbamoyl)benzyl)-2-oxo-2,5,6,8-tetrahydro-1H-pyrano[3,4-b]pyridine-3-carboxamido)acetic acid] | 21.3 nM
CC(C)Oc1ccc(Cn2c3c(c(O)c(C(=O)NCC(=O)O)c2=O)CCOC3)cc1 [Example 56, 2-(4-hydroxy-1-(4-isopropoxybenzyl)-2-oxo-2,5,6,8-tetrahydro-1H-pyrano[3,4-b]pyridine-3-carboxamido)acetic acid] | 29.1 nM
N#Cc1cccc(Cn2c3c(c(O)c(C(=O)NCC(=O)O)c2=O)CCOC3)c1 [Example 57, 2-(1-(3-cyanobenzyl)-4-hydroxy-2-oxo-2,5,6,8-tetrahydro-1H-pyrano[3,4-b]pyridine-3-carboxamido)acetic acid] | 35.2 nM
O=C(O)CNC(=O)c1c(O)c2c(n(Cc3ccccc3Cl)c1=O)COCC2 [Example 58, 2-(1-(2-chlorobenzyl)-4-hydroxy-2-oxo-2,5,6,8-tetrahydro-1H-pyrano[3,4-b]pyridine-3-carboxamido)acetic acid] | 25.5 nM
O=C(O)CNC(=O)c1c(O)c2c(n(Cc3ccccn3)c1=O)COCC2 [Example 59, 2-(4-hydroxy-2-oxo-1-(pyridin-2-ylmethyl)-2,5,6,8-tetrahydro-1H-pyrano[3,4-b]pyridine-3-carboxamido)acetic acid] | 44.2 nM
O=C(O)CNC(=O)c1c(O)c2c(n(Cc3ccncc3)c1=O)COCC2 [Example 60, 2-(4-hydroxy-2-oxo-1-(pyridin-4-ylmethyl)-2,5,6,8-tetrahydro-1H-pyrano[3,4-b]pyridine-3-carboxamido)acetic acid] | 30.4 nM
N#Cc1ccc(Cn2c3c(c(O)c(C(=O)NCC(=O)O)c2=O)CCOC3)cc1F [Example 61, 2-(1-(4-cyano-3-fluorobenzyl)-4-hydroxy-2-oxo-2,5,6,8-tetrahydro-1H-pyrano[3,4-b]pyridine-3-carboxamido)acetic acid] | 22.6 nM
O=C(O)CNC(=O)c1c(O)c2c(n(Cc3cncs3)c1=O)COCC2 [Example 62, 2-(4-hydroxy-2-oxo-1-(thiazol-5-ylmethyl)-2,5,6,8-tetrahydro-1H-pyrano[3,4-b]pyridine-3-carboxamido)acetic acid] | 44.1 nM
CC(C)(O)c1ccc(Cn2c3c(c(O)c(C(=O)NCC(=O)O)c2=O)CCOC3)cc1 [Example 63, 2-(4-Hydroxy-1-(4-(2-hydroxypropan-2-yl)benzyl)-2-oxo-2,5,6,8-tetrahydro-1H-pyrano[3,4-b]pyridine-3-carboxamido)acetic acid] | 67.4 nM
NC(=O)c1ccc(Cn2c3c(c(O)c(C(=O)NCC(=O)O)c2=O)CCOC3)cc1 [Example 64, 2-(1-(4-Carbamoylbenzyl)-4-hydroxy-2-oxo-2,5,6,8-tetrahydro-1H-pyrano[3,4-b]pyridine-3-carboxamido)acetic acid] | 30.6 nM
O=C(O)CNC(=O)c1c(O)c2c(n(Cc3ccc(-c4ccc(C(F)(F)F)cc4)cc3)c1=O)COCC2 [Example 65, 2-(4-Hydroxy-2-oxo-1-((4′-(trifluoromethyl)-[1,1′-biphenyl]-4-yl)methyl)-2,5,6,8-tetrahydro-1H-pyrano[3,4-b]pyridine-3-carboxamido)acetic acid] | 23.6 nM
O=C(O)CNC(=O)c1c(O)c2c(n(Cc3ccc(-c4ccc(OC(F)(F)F)cc4)cc3)c1=O)COCC2 [Example 66, 2-(4-hydroxy-2-oxo-1-((4′-(trifluoromethoxy)-[1,1′-biphenyl]-4-yl)methyl)-2,5,6,8-tetrahydro-1H-pyrano[3,4-b]pyridine-3-carboxamido)acetic acid] | 28.8 nM
O=C(O)CNC(=O)c1c(O)c2c(n(Cc3ccc(-c4ccc(Cl)cc4)cc3)c1=O)COCC2 [Example 67, 2-(1-((4′-chloro-[1,1′-biphenyl]-4-yl)methyl)-4-hydroxy-2-oxo-2,5,6,8-tetrahydro-1H-pyrano[3,4-b]pyridine-3-carboxamido)acetic acid] | 13.5 nM
NC(=O)c1ccc(-c2ccc(Cn3c4c(c(O)c(C(=O)NCC(=O)O)c3=O)CCOC4)cc2)cc1 [Example 68, 2-(1-((4′-carbamoyl-[1,1′-biphenyl]-4-yl)methyl)-4-hydroxy-2-oxo-2,5,6,8-tetrahydro-1H-pyrano[3,4-b]pyridine-3-carboxamido)acetic acid] | 7.8 nM
N#Cc1ccc(-c2ccc(Cn3c4c(c(O)c(C(=O)NCC(=O)O)c3=O)CCOC4)cc2)cc1 [Example 69, 2-(1-((4′-cyano-[1,1′-biphenyl]-4-yl)methyl)-4-hydroxy-2-oxo-2,5,6,8-tetrahydro-1H-pyrano[3,4-b]pyridine-3-carboxamido)acetic acid] | 16.3 nM
CN1Cc2c(c(O)c(C(=O)NCC(=O)O)c(=O)n2Cc2ccc(C#N)cc2F)CC1=O [Example 70, 2-(1-(4-Cyano-2-fluorobenzyl)-4-hydroxy-7-methyl-2,6-dioxo-1,2,5,6,7,8-hexahydro-1,7-naphthyridine-3-carboxamido)acetic acid] | 10.4 nM
